According to patent US20100210649A1, “PYRIDAZINONES AND FURAN-CONTAINING COMPOUNDS” (Sloan-Kettering Institute for Cancer Research, priority 2006, published 2010):
Read-outs that look alike come from different tables or passages of the source.

Columns and labels:
Format in all cases: cell-based, human
H1650 = assay: Non Small Cell Lung Cancer proliferation assay (Alamar Blue reduction), H1650; details: Homo sapiens, NCI-H1650, primary screening, 10 μM compound in 1% DMSO (v/v)
Protocol: (§1) These cells have a doubling time of 1-2 days. All cell types are adherent and grow in colonies. The cells should be kept at a density between 50,000 cells/mL -500,000 cells/mL to provide for optimum growth and adequate nutrition. The cell line should be maintained at 37° C. in a humidified atmosphere with 5% CO2 in a sterile cell culture incubator.
(§2) Non Small Cell Lung Cancer Proliferation Assay.
(§3) High Controls for this assay are made by treating Non Small Cell Lung Cancer cells with 5 ul of 10% DMSO. [Final concentration in this assay is 1% DMSO].
(§4) Important Note: All compounds for testing in this assay should be done at the final concentration of 1% DMSO.
(§5) After addition, the cells are placed in cell culture incubator at 37° C. for 48 hours for complete treatment.
(§6) After drug treatment, cytotoxicity is measured by Alamar Blue reduction.
(§7) The cells are incubated for 48 hours at 37° C. to complete the Alamar Blue reduction.
(§8) The final step in the assay is to measure the amount of Alamar Blue reduction. […] The Alamar Blue fluorescence is measured at an excitation of 530 nm and emission of 590 nm.
(§9) For the NSCLC project, the cell based assay was screened against a small molecule library of approximately 200,000 compounds. The compound library is stored in our automated robotic freezer (Biophile) at −20° C. in 100% DMSO. Compound freeze and thaw cycles are kept to a minimum. […] This assay was performed on a fully automated linear track robotic platform (CRS F3 Robot System, Thermo Electron Corp., Ontario, Canada) utilizing several integrated peripherals for plate handling, liquid dispensing, and readout detection. […] The microplates are then placed at 37° C. for 48 hours to complete treatment of cells with compounds. Next, 5 ul of alamar blue was added using a liquid dispenser (Flexprop Precision Dispenser, Perkin Elmer, Mass., USA) and incubated for 48 hours at 37° C. The alamar blue prompt fluorescence was measured on Victor V (Victor^3 V, Perkin Elmer, Mass., USA) and output data files were loaded into ORIS (Oncology Research Informatics System, MSKCC, NY, USA), a screening data acquisition and analysis platform.
(§10) The dose response studies were done with the following standard procedure. First, the cells were counted and dispensed at 250 cells/well into 384-well microplates with compound. The cells were incubated for 48 hours at 37 C to complete treatment, and then alamar blue was added for an additional 48 hours. Finally, alamar blue reduction was measured and the data was loaded into ORIS, our data screening acquisition platform.

H1975 = assay: Non Small Cell Lung Cancer proliferation assay (Alamar Blue reduction), H1975; details: Homo sapiens, NCI-H1975, primary screening, 10 μM compound in 1% DMSO (v/v)
Protocol: as §1, §2, §3, §4, §5, §6, §7, §8, §9, §10

H2030 = assay: Non Small Cell Lung Cancer proliferation assay (Alamar Blue reduction), H2030; details: Homo sapiens, NCI-H2030, primary screening, 10 μM compound in 1% DMSO (v/v)
Protocol: as §1, §2, §3, §4, §5, §6, §7, §8, §9, §10

H3255 = assay: Non Small Cell Lung Cancer proliferation assay (Alamar Blue reduction), H3255; details: Homo sapiens, NCI-H3255, primary screening, 10 μM compound in 1% DMSO (v/v)
Protocol: as §1, §2, §3, §4, §5, §6, §7, §8, §9, §10

[1] = read-out: percentage inhibition H1650
[2] = read-out: percentage inhibition H1975
[3] = read-out: percentage inhibition H2030
[4] = read-out: percentage inhibition H3255
[5] = H1650, read-out: PRIMARY HTS [%] H1650 (percentage inhibition)
[6] = H1975, read-out: PRIMARY HTS [%] H1975 (percentage inhibition)
[7] = H2030, read-out: PRIMARY HTS [%] H2030 (percentage inhibition)
[8] = H3255, read-out: PRIMARY HTS [%] H3255 (percentage inhibition)

Structure (SMILES): O=c1c(Cl)c(Cl)cnn1-c1ccc(Cl)c(C(F)(F)F)c1 [compound 103719]
- inhibition at 10 µM (H1650; [1]): 45%
- inhibition at 10 µM (H1975; [2]): 102%
- inhibition at 10 µM (H2030; [3]): 94%
- inhibition at 10 µM (H3255; [4]): 76%

Structure (SMILES): O=c1c(Cl)c(Cl)c(O)nn1-c1ccccc1 [compound 103751]
- inhibition at 10 µM (H1650; [1]): 6%
- inhibition at 10 µM (H1975; [2]): -4%
- inhibition at 10 µM (H2030; [3]): -4%
- inhibition at 10 µM (H3255; [4]): 0%

Structure (SMILES): O=c1c(Cl)c(N2CCCC2)cnn1-c1ccccc1 [compound 103868]
- inhibition at 10 µM (H1650; [1]): -7%
- inhibition at 10 µM (H1975; [2]): -18%
- inhibition at 10 µM (H2030; [3]): -4%
- inhibition at 10 µM (H3255; [4]): -3%

Structure (SMILES): COc1cnn(-c2cccc(C(F)(F)F)c2)c(=O)c1Cl [compound 103872]
- inhibition at 10 µM (H1650; [1]): 17%
- inhibition at 10 µM (H1975; [2]): 9%
- inhibition at 10 µM (H2030; [3]): 2%
- inhibition at 10 µM (H3255; [4]): -25%

Structure (SMILES): CN(C)c1c(Cl)cnn(-c2ccccc2)c1=O [compound 103911]
- inhibition at 10 µM (H1650; [1]): -7%
- inhibition at 10 µM (H1975; [2]): -12%
- inhibition at 10 µM (H2030; [3]): -5%
- inhibition at 10 µM (H3255; [4]): -3%

Structure (SMILES): CCc1ccccc1NC(=O)c1ccc([N+](=O)[O-])o1 [compound 103960]
- inhibition at 10 µM (H1650; [5]): 62%
- inhibition at 10 µM (H1975; [6]): 41%
- inhibition at 10 µM (H2030; [7]): 73%
- inhibition at 10 µM (H3255; [8]): 68%

Structure (SMILES): COc1cnn(-c2ccccc2)c(=O)c1N(C)C [compound 103971]
- inhibition at 10 µM (H1650; [1]): 5%
- inhibition at 10 µM (H1975; [2]): -10%
- inhibition at 10 µM (H2030; [3]): 1%
- inhibition at 10 µM (H3255; [4]): -1%

Structure (SMILES): CCSc1cnn(-c2ccccc2)c(=O)c1Cl [compound 103997]
- inhibition at 10 µM (H1650; [1]): -15%
- inhibition at 10 µM (H1975; [2]): 98%
- inhibition at 10 µM (H2030; [3]): 9%
- inhibition at 10 µM (H3255; [4]): 2%

Structure (SMILES): CN(C(=O)c1ccc([N+](=O)[O-])o1)c1ccccc1 [compound 104003]
- inhibition at 10 µM (H1650; [5]): -3%
- inhibition at 10 µM (H1975; [6]): 18%
- inhibition at 10 µM (H2030; [7]): 0%
- inhibition at 10 µM (H3255; [8]): 5%

Structure (SMILES): O=c1c(Cl)c(Cl)cnn1-c1ccc(Cl)cc1 [compound 104004]
- inhibition at 10 µM (H1650; [1]): 1%
- inhibition at 10 µM (H1975; [2]): 98%
- inhibition at 10 µM (H2030; [3]): 75%
- inhibition at 10 µM (H3255; [4]): 90%

Structure (SMILES): O=C(Nc1cc(C(F)(F)F)ccc1Cl)c1ccc([N+](=O)[O-])o1 [compound 104039]
- inhibition at 10 µM (H1650; [5]): 61%
- inhibition at 10 µM (H1975; [6]): 69%
- inhibition at 10 µM (H2030; [7]): 13%
- inhibition at 10 µM (H3255; [8]): 6%

Structure (SMILES): CSc1cnn(-c2ccccc2)c(=O)c1Cl [compound 104185]
- inhibition at 10 µM (H1650; [1]): -9%
- inhibition at 10 µM (H1975; [2]): 22%
- inhibition at 10 µM (H2030; [3]): -2%
- inhibition at 10 µM (H3255; [4]): 1%

Structure (SMILES): O=c1c(Cl)c(Cl)cnn1-c1cccc(Cl)c1 [compound 104188]
- inhibition at 10 µM (H1650; [1]): -13%
- inhibition at 10 µM (H1975; [2]): 102%
- inhibition at 10 µM (H2030; [3]): -4%
- inhibition at 10 µM (H3255; [4]): 4%

Structure (SMILES): CCOc1cnn(-c2ccccc2)c(=O)c1Cl [compound 104217]
- inhibition at 10 µM (H1650; [1]): -15%
- inhibition at 10 µM (H1975; [2]): -7%
- inhibition at 10 µM (H2030; [3]): 6%
- inhibition at 10 µM (H3255; [4]): -1%

Structure (SMILES): CCOc1c(Cl)cnn(-c2ccccc2)c1=O [compound 104288]
- inhibition at 10 µM (H1650; [1]): -13%
- inhibition at 10 µM (H1975; [2]): 102%
- inhibition at 10 µM (H2030; [3]): 66%
- inhibition at 10 µM (H3255; [4]): 46%

Structure (SMILES): O=c1c(N2CCCC2)c(Cl)cnn1-c1ccccc1 [compound 104304]
- inhibition at 10 µM (H1650; [1]): 52%
- inhibition at 10 µM (H1975; [2]): 98%
- inhibition at 10 µM (H2030; [3]): 14%
- inhibition at 10 µM (H3255; [4]): 107%

Structure (SMILES): COc1cnn(-c2cccc(C)c2)c(=O)c1Cl [compound 104325]
- inhibition at 10 µM (H1650; [1]): -31%
- inhibition at 10 µM (H1975; [2]): -12%
- inhibition at 10 µM (H2030; [3]): 2%
- inhibition at 10 µM (H3255; [4]): 4%

Structure (SMILES): COc1nn(-c2ccccc2)c(=O)c(Cl)c1Cl [compound 104332]
- inhibition at 10 µM (H1650; [1]): 51%
- inhibition at 10 µM (H1975; [2]): 99%
- inhibition at 10 µM (H2030; [3]): 87%
- inhibition at 10 µM (H3255; [4]): 82%
